Reference: patent US9763961B2, “Compositions that modulate the activity of estrogen receptors and estrogen-related receptors and methods for use” (CITY OF HOPE, priority 2005, dated 2017)

Columns and labels:
[1] = molecular target: T1, human ERRα-1 (Homo sapiens, UniProt P11474); assay: Transient transfection luciferase assay, full length human ERRα with SF1-SV40-Luc reporter in HeLa cells; type: cell-based; conditions: HeLa cells
T1 construct: expressed in transfected cells; host or cells: HeLa
T1 sequence (P11474 1-423): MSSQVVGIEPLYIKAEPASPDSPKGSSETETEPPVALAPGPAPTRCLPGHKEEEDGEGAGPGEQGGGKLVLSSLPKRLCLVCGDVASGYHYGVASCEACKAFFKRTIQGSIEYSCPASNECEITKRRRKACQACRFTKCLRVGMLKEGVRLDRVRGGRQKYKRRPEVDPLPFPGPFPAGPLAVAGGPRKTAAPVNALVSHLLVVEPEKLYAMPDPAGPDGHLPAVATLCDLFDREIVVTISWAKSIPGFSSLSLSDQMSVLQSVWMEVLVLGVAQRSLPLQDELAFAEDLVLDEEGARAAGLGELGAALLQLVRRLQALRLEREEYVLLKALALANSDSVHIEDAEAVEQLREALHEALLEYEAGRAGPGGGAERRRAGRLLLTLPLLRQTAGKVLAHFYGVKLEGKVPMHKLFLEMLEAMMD
Experimental: HeLa cells were cultured in MEM Earle's salts medium supplemented with 5% charcoal/dextran-treated fetal bovine serum. Cells were then divided and cultured in 6-well plates until 80% confluence was achieved. The cells were next transfected with 4 μg Lipofectin. An equal amount of total DNA was used in all transfections by including appropriate amounts of the empty vector, pSG5, in addition to specific amounts of pSG5-ERRα and luciferase reporter plasmids (ERRE (ERRα recognizes an ERE half site)-containing reporter and aromatase promoter I.3-containing reporter). Following an overnight incubation, the medium containing Lipofectin and DNA was removed, and the cells cultured in a growth medium containing 5% charcoal/dextran-treated fetal bovine serum with or without ligands. After a 24-hour incubation, the cells was harvested from the plates by scraping, and the luciferase activities in the cell lysates (with the same amounts of protein) was measured according to the manufacturer's instructions (Promega). All experiments were performed in triplicate.
(§1) To evaluate the functional significance of the interaction of chalcones with ERRα, we incubated these compounds with HeLa cells which were transiently transfected with human ERRα expression plasmid and a luciferase reporter plasmid containing SF1 binding site. […] In order to confirm the results above, HeLa cells were transiently transfected with GAL4-human ERRα LBD fusion expression plasmid and a luciferase reporter plasmid containing GAL4 binding site. […] Most of the compounds, however, have similar IC50 value, and have a similar potency.
(§2) Referring to FIG. 1, HeLa cells were cotransfected with pSG5-ERRα (0.5 μg) and luciferase reporter plasmid containing SF1 binding site and SV40 promoter (0.25 μg). The transfected cells were incubated with Compound No. 1-9 for 24 h. After cells were washed with 1× PBS, luciferase activity was measured. Values represent the mean±SD.

[2] = molecular target: T2, GAL4-human ERRα LBD fusion (Homo sapiens, UniProt P11474); assay: Transient transfection luciferase assay, GAL4-human ERRα LBD fusion with Gal4-TK-Luc reporter in HeLa cells; type: cell-based; conditions: pM-ERRα LBD, 24 h, mean ± SD
T2 construct: GAL4-human ERRα LBD fusion expression plasmid; expressed in transfected cells; host or cells: HeLa
T2 sequence (P11474 193-421 limits assumed): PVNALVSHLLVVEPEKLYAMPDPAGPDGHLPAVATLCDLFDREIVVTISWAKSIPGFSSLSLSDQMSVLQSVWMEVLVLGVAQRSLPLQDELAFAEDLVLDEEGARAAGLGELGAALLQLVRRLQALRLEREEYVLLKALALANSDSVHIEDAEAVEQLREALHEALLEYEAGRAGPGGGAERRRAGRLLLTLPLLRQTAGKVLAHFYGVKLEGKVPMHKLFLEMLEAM
Experimental: Referring to FIG. 2, we have also prepared GAL4-ERRα expression plasmid and luciferase reporter plasmids with GAL4 response element. This is a more sensitive assay method than that using pSG5-ERRα and ERE luciferase reporter plasmids.
as §1
as §2, with “2,” for “1,”, “pM-ERRα LBD” for “pSG5-ERRα”, “GAL4” for “SF1”, “TK” for “SV40”

[3] = molecular target: T3, ERRβ (Homo sapiens, UniProt O95718); assay: Transient transfection luciferase assay with pSG5-ERRb and SF1-SV40 reporter in HeLa cells; type: cell-based
T3 construct: expressed in transfected cells; host or cells: HeLa
T3 sequence (O95718 1-433): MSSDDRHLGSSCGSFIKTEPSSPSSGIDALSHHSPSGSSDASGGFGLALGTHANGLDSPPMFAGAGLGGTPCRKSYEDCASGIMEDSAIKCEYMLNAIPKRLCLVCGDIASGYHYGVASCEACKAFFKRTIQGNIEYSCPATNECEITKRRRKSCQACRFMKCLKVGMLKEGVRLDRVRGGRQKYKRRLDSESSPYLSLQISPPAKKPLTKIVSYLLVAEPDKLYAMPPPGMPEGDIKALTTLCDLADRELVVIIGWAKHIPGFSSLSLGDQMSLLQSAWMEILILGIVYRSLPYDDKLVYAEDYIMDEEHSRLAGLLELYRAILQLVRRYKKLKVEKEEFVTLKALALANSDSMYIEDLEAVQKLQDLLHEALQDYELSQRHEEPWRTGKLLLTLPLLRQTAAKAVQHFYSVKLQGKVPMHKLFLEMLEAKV

[4] = molecular target: T4, ERRγ (Homo sapiens, UniProt P62508); assay: Transient transfection luciferase assay with pSG5-ERRg and SF1-SV40 reporter in HeLa cells; type: cell-based
T4 construct: expressed in transfected cells; host or cells: HeLa
T4 sequence (P62508 1-458): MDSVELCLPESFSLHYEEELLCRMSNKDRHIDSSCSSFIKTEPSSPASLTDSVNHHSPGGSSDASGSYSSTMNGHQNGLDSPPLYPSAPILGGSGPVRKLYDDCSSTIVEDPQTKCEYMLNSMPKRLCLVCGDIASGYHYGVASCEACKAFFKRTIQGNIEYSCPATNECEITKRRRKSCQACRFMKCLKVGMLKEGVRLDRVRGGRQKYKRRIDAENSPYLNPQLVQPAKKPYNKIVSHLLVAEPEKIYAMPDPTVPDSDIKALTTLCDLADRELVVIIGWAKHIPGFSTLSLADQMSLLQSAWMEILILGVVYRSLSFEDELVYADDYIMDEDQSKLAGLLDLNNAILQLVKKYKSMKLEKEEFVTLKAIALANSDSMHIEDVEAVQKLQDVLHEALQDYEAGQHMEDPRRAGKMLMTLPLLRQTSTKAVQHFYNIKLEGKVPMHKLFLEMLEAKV

[5] = molecular target: T5, ERα (Homo sapiens, UniProt P03372); assay: Transient transfection luciferase assay with pSG5-ERa and ERE-SV40 reporter in HeLa cells, with 100 pM estradiol; type: cell-based
T5 construct: expressed in transfected cells; host or cells: HeLa
T5 sequence (P03372 1-595): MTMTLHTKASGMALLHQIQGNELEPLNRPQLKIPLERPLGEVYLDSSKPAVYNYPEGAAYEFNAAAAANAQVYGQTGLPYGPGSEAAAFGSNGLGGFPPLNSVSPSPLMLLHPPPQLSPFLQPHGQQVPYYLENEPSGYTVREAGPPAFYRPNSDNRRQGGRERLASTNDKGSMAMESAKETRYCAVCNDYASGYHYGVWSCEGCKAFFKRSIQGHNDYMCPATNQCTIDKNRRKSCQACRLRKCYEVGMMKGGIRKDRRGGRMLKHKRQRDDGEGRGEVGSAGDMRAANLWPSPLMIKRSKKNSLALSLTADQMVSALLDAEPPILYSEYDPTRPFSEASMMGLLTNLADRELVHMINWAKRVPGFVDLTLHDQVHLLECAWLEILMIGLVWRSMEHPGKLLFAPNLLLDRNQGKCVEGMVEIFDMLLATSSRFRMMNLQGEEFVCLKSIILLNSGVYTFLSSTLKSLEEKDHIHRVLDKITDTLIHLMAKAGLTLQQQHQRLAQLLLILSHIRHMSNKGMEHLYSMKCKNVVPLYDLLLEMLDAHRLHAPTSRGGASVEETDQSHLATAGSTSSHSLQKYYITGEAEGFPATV

[6] = molecular target: T6, ERβ (Homo sapiens, UniProt Q92731); assay: Transient transfection luciferase assay with pCI-ERb and ERE-SV40 reporter in HeLa cells, with 100 pM estradiol; type: cell-based
T6 construct: expressed in transfected cells; host or cells: HeLa

[7] = molecular target: T3, ERRβ; assay: Relative luciferase activity for ERRβ (FIG. 8); type: cell-based
[8] = molecular target: T4, ERRγ; assay: Relative luciferase activity for ERRγ (FIG. 8); type: cell-based
[9] = molecular target: T7, ERRα (Homo sapiens, UniProt P11474); assay: Relative luciferase activity for ERRα (FIG. 8); type: cell-based; parameters: endogenous in cells; host or cells: SK-BR-3
T7 sequence (P11474 1-423): T1 sequence (P11474 1-423)

[10] = tested on: ER; conditions: cited from earlier work
[11] = HeLa cells, 24 h, average of at least two experiments
[12] = HeLa cells, in the presence of 100 pM of estradiol, 24 h

T6 sequence (Q92731 whole entry, species assumed): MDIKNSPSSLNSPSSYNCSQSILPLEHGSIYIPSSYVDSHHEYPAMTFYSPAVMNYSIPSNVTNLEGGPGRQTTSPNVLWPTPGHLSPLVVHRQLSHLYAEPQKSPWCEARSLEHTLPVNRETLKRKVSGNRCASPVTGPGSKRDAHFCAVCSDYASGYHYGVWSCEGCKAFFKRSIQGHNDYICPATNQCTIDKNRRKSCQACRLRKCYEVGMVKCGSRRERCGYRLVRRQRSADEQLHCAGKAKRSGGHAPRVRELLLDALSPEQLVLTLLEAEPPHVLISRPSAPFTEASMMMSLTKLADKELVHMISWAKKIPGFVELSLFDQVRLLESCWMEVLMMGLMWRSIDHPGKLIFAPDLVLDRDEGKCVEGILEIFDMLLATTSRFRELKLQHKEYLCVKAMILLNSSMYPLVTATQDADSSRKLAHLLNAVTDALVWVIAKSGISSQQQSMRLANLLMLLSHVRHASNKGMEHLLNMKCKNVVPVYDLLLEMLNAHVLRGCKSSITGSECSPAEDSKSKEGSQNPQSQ

Compound: COc1ccc(C(=O)/C=C/c2ccccc2OC)c(O)c1 [7-2]
- Antagonism of constitutive activity of ERRα (in words) ([1]; SF1 binding site reporter, FIG. 1): antagonists of ERRα
- IC50 ([1]; pSG5-ERRα, 24 h, mean ± SD): 8.3 ± 0.4 µM
- IC50 [2]: 2e+06 ± 700000 pM
- IC50 [3, 11]: 6.7 µM
- Antagonistic properties on ERRb (in words) ([3]; transient transfection): showed antagonistic properties
- IC50 [4, 11]: 8 µM
- Antagonistic properties on ERRg (in words) ([4]; transient transfection): showed antagonistic properties
- IC50 [5, 12]: 7.8 µM
- Antagonistic properties on ERa (in words) ([5]; transient transfection): showed antagonistic properties
- IC50 [6, 12]: 15 µM
- Antagonistic properties on ERb (in words) ([6]; transient transfection): showed antagonistic properties

Compound: O=C(/C=C/c1ccc(O)cc1)c1ccc(O)cc1O [Compound No. 3-15, 4,2′,4′-trihydroxychalcone]
- Agonist activity on ERRβ [7]: agonist of all three forms of ERRs
- Agonist activity on ERRγ [8]: agonist of all three forms of ERRs
- Agonist activity on ERRα [9]: agonist of all three forms of ERRs

Compound: CC/C(=C(/c1ccc(O)cc1)c1ccc(OCCN(C)C)cc1)c1ccccc1 [E-4-OHT]
- Affinity for ER relative to Z-4-OHT [10]: about 5%
